The NIST ThermoML archive (doi:10.1021/je700406p)
± gives the expanded uncertainty stated by the source.

Assay: wn = mass fraction of the nth substance listed
Conditions: Liquid, Vibrating tube method

## CC(C)(N)CO [2-amino-2-methylpropan-1-ol] + O
352.85 K, 12992 kPa, w1 = 0.2821
  mass density: 967.1 ± 0.6 kg/m3
352.85 K, 13990 kPa, w1 = 0.2821
  mass density: 967.5 ± 0.6 kg/m3
352.85 K, 14990 kPa, w1 = 0.2821
  mass density: 968 ± 0.6 kg/m3
352.85 K, 15988 kPa, w1 = 0.2821
  mass density: 968.4 ± 0.6 kg/m3
352.85 K, 16991 kPa, w1 = 0.2821
  mass density: 968.8 ± 0.6 kg/m3
352.85 K, 17991 kPa, w1 = 0.2821
  mass density: 969.2 ± 0.6 kg/m3
352.85 K, 18988 kPa, w1 = 0.2821
  mass density: 969.6 ± 0.6 kg/m3
352.85 K, 19987 kPa, w1 = 0.2821
  mass density: 970.1 ± 0.6 kg/m3
352.85 K, 20985 kPa, w1 = 0.2821
  mass density: 970.5 ± 0.6 kg/m3
352.86 K, 500 kPa, w1 = 0.1997
  mass density: 965 ± 0.5 kg/m3
352.86 K, 1000 kPa, w1 = 0.1997
  mass density: 965.2 ± 0.5 kg/m3
352.86 K, 2000 kPa, w1 = 0.1997
  mass density: 965.7 ± 0.5 kg/m3
352.86 K, 3000 kPa, w1 = 0.1997
  mass density: 966.2 ± 0.5 kg/m3
352.86 K, 4000 kPa, w1 = 0.1997
  mass density: 966.5 ± 0.5 kg/m3
352.86 K, 5000 kPa, w1 = 0.1997
  mass density: 966.9 ± 0.5 kg/m3
352.86 K, 6000 kPa, w1 = 0.1997
  mass density: 967.3 ± 0.5 kg/m3
352.86 K, 7000 kPa, w1 = 0.1997
  mass density: 967.8 ± 0.5 kg/m3
352.86 K, 8000 kPa, w1 = 0.1997
  mass density: 968.2 ± 0.5 kg/m3
352.86 K, 9009 kPa, w1 = 0.1997
  mass density: 968.6 ± 0.5 kg/m3
352.86 K, 10002 kPa, w1 = 0.1997
  mass density: 969.1 ± 0.5 kg/m3
352.86 K, 11001 kPa, w1 = 0.1997
  mass density: 969.5 ± 0.5 kg/m3
352.86 K, 12000 kPa, w1 = 0.1997
  mass density: 970 ± 0.5 kg/m3
352.86 K, 13000 kPa, w1 = 0.1997
  mass density: 970.4 ± 0.5 kg/m3
352.86 K, 14000 kPa, w1 = 0.1997
  mass density: 970.8 ± 0.5 kg/m3
352.86 K, 15003 kPa, w1 = 0.1997
  mass density: 971.2 ± 0.5 kg/m3
352.86 K, 16001 kPa, w1 = 0.1997
  mass density: 971.6 ± 0.5 kg/m3
352.86 K, 17001 kPa, w1 = 0.1997
  mass density: 972.1 ± 0.5 kg/m3
352.86 K, 18002 kPa, w1 = 0.1997
  mass density: 972.5 ± 0.5 kg/m3
352.86 K, 19001 kPa, w1 = 0.1997
  mass density: 972.9 ± 0.5 kg/m3
352.86 K, 20029 kPa, w1 = 0.1997
  mass density: 973.3 ± 0.5 kg/m3
352.86 K, 21004 kPa, w1 = 0.1997
  mass density: 973.8 ± 0.5 kg/m3
352.86 K, 22004 kPa, w1 = 0.1997
  mass density: 974.1 ± 0.5 kg/m3
352.86 K, 23000 kPa, w1 = 0.1997
  mass density: 974.5 ± 0.5 kg/m3
352.86 K, 24004 kPa, w1 = 0.1997
  mass density: 975 ± 0.5 kg/m3
352.87 K, 1039 kPa, w1 = 0.4976
  mass density: 945 ± 1.2 kg/m3
352.87 K, 2018 kPa, w1 = 0.4976
  mass density: 945.5 ± 1.2 kg/m3
352.87 K, 3005 kPa, w1 = 0.4976
  mass density: 946 ± 1.2 kg/m3
352.87 K, 4018 kPa, w1 = 0.4976
  mass density: 946.5 ± 1.2 kg/m3
352.87 K, 5000 kPa, w1 = 0.4976
  mass density: 946.9 ± 1.2 kg/m3
352.87 K, 5997 kPa, w1 = 0.4976
  mass density: 947.4 ± 1.2 kg/m3
352.87 K, 7007 kPa, w1 = 0.4976
  mass density: 947.9 ± 1.2 kg/m3
352.87 K, 7999 kPa, w1 = 0.4976
  mass density: 948.4 ± 1.2 kg/m3
352.87 K, 8994 kPa, w1 = 0.4976
  mass density: 948.9 ± 1.2 kg/m3
352.87 K, 9996 kPa, w1 = 0.4976
  mass density: 949.4 ± 1.2 kg/m3
352.87 K, 10996 kPa, w1 = 0.4976
  mass density: 949.8 ± 1.2 kg/m3
352.87 K, 12002 kPa, w1 = 0.4976
  mass density: 950.3 ± 1.2 kg/m3
352.87 K, 13000 kPa, w1 = 0.4976
  mass density: 950.8 ± 1.2 kg/m3
352.87 K, 13993 kPa, w1 = 0.4976
  mass density: 951.2 ± 1.2 kg/m3
352.87 K, 15004 kPa, w1 = 0.4976
  mass density: 951.7 ± 1.2 kg/m3
352.87 K, 16002 kPa, w1 = 0.4976
  mass density: 952.2 ± 1.2 kg/m3
352.87 K, 16989 kPa, w1 = 0.4976
  mass density: 952.6 ± 1.3 kg/m3
352.87 K, 18011 kPa, w1 = 0.4976
  mass density: 953.1 ± 1.3 kg/m3
352.87 K, 18989 kPa, w1 = 0.4976
  mass density: 953.5 ± 1.3 kg/m3
352.87 K, 20010 kPa, w1 = 0.4976
  mass density: 954 ± 1.3 kg/m3
352.87 K, 20989 kPa, w1 = 0.4976
  mass density: 954.4 ± 1.3 kg/m3
362.73 K, 999 kPa, w1 = 0.2821
  mass density: 954.1 ± 0.6 kg/m3
362.73 K, 1015 kPa, w1 = 0.4976
  mass density: 936.3 ± 1.2 kg/m3
362.73 K, 1999 kPa, w1 = 0.2821
  mass density: 954.5 ± 0.6 kg/m3
362.73 K, 2010 kPa, w1 = 0.4976
  mass density: 936.7 ± 1.2 kg/m3
362.73 K, 2998 kPa, w1 = 0.2821
  mass density: 955.1 ± 0.6 kg/m3
362.73 K, 3022 kPa, w1 = 0.4976
  mass density: 937.3 ± 1.2 kg/m3
362.73 K, 3996 kPa, w1 = 0.2821
  mass density: 955.4 ± 0.6 kg/m3
362.73 K, 3997 kPa, w1 = 0.4976
  mass density: 937.8 ± 1.2 kg/m3
362.73 K, 4996 kPa, w1 = 0.2821
  mass density: 955.9 ± 0.6 kg/m3
